Results published in publication PMC9494960, “Antiamoebic Activity of Imidazothiazole Derivatives against Opportunistic Pathogen Acanthamoeba castellanii” (Antibiotics, 2022).

Experiments:
[1] = test system: A. castellanii genotype T4 (ATCC 50492) trophozoites; assay: Amoebicidal assay (Trypan blue exclusion, haemocytometer counting); type: cell-based, Acanthamoeba castellanii; details: for Amoebicidal Activity Inhibition % ± SEM: 50 µM concentration, Supplementary Table S1; for amoebicidal effects / antiamoebic activity against A. castellanii: 50 µM, 24 h, 30 °C; for IC50: tested at 12.5, 25, 50 and 100 µM against A. castellanii
Procedure: A. castellanii genotype T4 (ATCC 50492) trophozoites were used in this study. The amoebae were axenically cultivated at 30 °C in T-75 cm^3 culture flask using a proteose-peptone yeast extract-glucose (PYG) broth culture. Upon confluency, amoeba cultured flask was placed on ice for 10 min followed by gently tapping to dislodge the adhered trophozoites. Next, culture was centrifuged at 3000× g for 5 min. The supernatant was discarded and the pellet was re-suspended in 1 mL of Roswell Park Memorial Institute (RPMI) media. Finally, amoebae were counted via haemocytometer microscopically and the desired initial inoculum (5 × 10^5) was adjusted and used in different assays. Different molecules were tested against A. castellanii to examine their antiamoebic effects as previously reported. Briefly, A. castellanii (5 × 10^5) were incubated with 50 µM of the tested compounds for 24 h at 30 °C with a final assays volume of 0.5 mL in a 24-well plate. For controls, amoebae cultured in RPMI alone and with 0.25% sodium dodecyl sulfate (SDS) was taken as negative and positive control, respectively. Finally, each well was stained with Trypan blue (0.1%) and viable amoebae trophozoites were enumerated by haemocytometer. In some trails, these compounds were tested at different concentrations (12.5, 25, 50 and 100 µM) to determine their 50% inhibitory concentration (IC50) against A. castellanii.

HeLa cells = assay: In vitro cytotoxicity, lactate dehydrogenase (LDH) assay; type: cell-based, human; details: 50 µM, 24 h, LDH release
Procedure: HeLa cells were obtained from the American Type Culture Collection (ATCC CCL-2) and grown at 37 °C with 5% CO2 and 95% humidity in RPMI supplemented with 10% fetal bovine serum (FBS), 1% minimum essential medium amino acids, 1% Penicillin-Streptomycin (Pen-Strep) and 1% L-glutamine. The media was removed aseptically, and cells were detached enzymatically using 2 mL of trypsin EDTA. Next, culture containing dislodged cells was centrifuged at 2500× g for 5 min. The cell pellet was resuspended in the above-mentioned media, subsequently added into 96-well plates and utilized in different assays. In vitro cytotoxic effects of the tested molecules were determined using Lactate dehydrogenase (LDH) assays against human cells. In brief, 50 µM concentration of the tested compounds were incubated with HeLa cells monolayer for 24 h at 37 °C with 5% CO2 in humidified conditions. After this incubation, 0.1% triton X-100 was added to the positive control wells and incubated the plate for 45 min at 37 °C. Then, an equal volume of cells supernatant containing liberated LDH enzyme was mixed with an equal volume of LDH kit reagents (Cytotoxicity Detection kit; Roche Diagnostics, Indianapolis, IN, USA). The positive and negative controls were cell monolayers treated with 0.1 percent Triton X-100 and in RPMI alone. The plate was subjected to multi-plate reader and absorbance was recorded at 490 nm. The percent cytotoxicity was calculated using given formula; % Cell cytotoxicity = sample value − negative control value/positive control value − negative control value × 100.

[2] = test system: A. castellanii binding to HeLa cells; assay: Adhesion assay: amoebae binding to human cells; type: cell-based, Acanthamoeba castellanii; details: amoebae pre-treated with 50 µM for 2 h; 60 min on HeLa monolayer
Procedure: Adhesion assays were performed to determine how the tested molecules affect the binding capability of amoebae to human cells. Firstly, A. castellanii (5 ×10^5) trophozoites were treated with 50 µM of the compounds in serum-free RPMI medium at 30 °C for 2 h. Next, pre-treated amoebae were centrifuged at 3000× g for 5 min and re-suspended the amoeba in 200 µL of RPMI medium. The total assay volume including pre-treated amoeba was transferred to a confluent HeLa cell monolayer cultured in 96-well plates. For control, amoebae trophozoites alone were added to HeLa cell monolayer. The plates were incubated for 60 min at 37 °C with 5% CO2 and 95% humidity and amoebae (unbound) were then counted by haemocytometer. Percent bound amoebae was calculated using the following formula: % amoebae (bound) = 100 − amoebae (unbound)(1)

human cell lines = assay: MTT assay (EC50/CC50 and MNTD90); type: cell-based; details: for CC50: 50% effective/cytotoxic concentration (CC50), tested at 12.5–100 µM; for EC90: Maximum Non-Toxic Dose, read-out: MNTD/EC90
[3] = test system: A. castellanii trophozoites; assay: Encystation assay; type: cell-based, Acanthamoeba castellanii; details: 50 µM, 16% glucose, 30 °C, 48–72 h; negative control 100%
Procedure: Encystation assays were performed to determine the effects of the tested compounds to prevent the differentiation of A. castellanii trophozoites into the cyst form and 50 µM of the tested compounds were utilized. Briefly, A. castellanii (1 × 10^6) trophozoites were incubated with these compounds with 16% filter-sterilized glucose (as encystation medium) at 30 °C 48–72 h. A. castellanii cultured alone in 16% glucose was taken as negative control. After this incubation, 0.1% sodium dodecyl sulfate (SDS) was added to each well and agitated the plate for 20 min. The SDS resistant cysts were enumerated using a haemocytometer and data was recoded.

Structure (SMILES)	Amoebicidal Activity Inhibition % ± SEM [1]	IC50 [1] [µM]	other results
COc1cccc(NC(=O)NCCNc2nccc(-c3c(-c4ccc(F)cc4)nc4sccn34)n2)c1 [Compound 1a]	7.70% ± 3.57%		cytotoxicity against HeLa cells (HeLa cells): 35%
O=C(NCCNc1nccc(-c2c(-c3ccc(F)cc3)nc3sccn23)n1)Nc1cccc(C(F)(F)F)c1 [Compound 1b]	12.86% ± 5.93%		
O=C(NCCNc1nccc(-c2c(-c3ccc(F)cc3)nc3sccn23)n1)Nc1cc(C(F)(F)F)cc(C(F)(F)F)c1 [Compound 1c]	17.28% ± 1.88%		
Cc1ccc(C(=O)NCCNc2nccc(-c3c(-c4ccc(F)cc4)nc4sccn34)n2)cc1 [Compound 1d]	39.50% ± 1.53%		
COc1ccc(C(=O)NCCNc2nccc(-c3c(-c4ccc(F)cc4)nc4sccn34)n2)cc1OC [Compound 1e]	44.50% ± 1.79%		inhibition of amoebae binding to human cells [2]: 40%
O=C(NCCNc1nccc(-c2c(-c3ccc(F)cc3)nc3sccn23)n1)c1ccc2c(c1)OCCO2 [Compound 1f]	40.50% ± 4.84%		
O=C(NCCNc1nccc(-c2c(-c3ccc(F)cc3)nc3sccn23)n1)c1ccccc1O [Compound 1g]	42.20% ± 3.29%		
O=C(NCCNc1nccc(-c2c(-c3ccc(F)cc3)nc3sccn23)n1)c1cccc(C(F)(F)F)c1 [Compound 1h]	38.16% ± 3.74%		
Cc1cn(-c2cc(C(=O)NCCNc3nccc(-c4c(-c5ccc(F)cc5)nc5sccn45)n3)cc(C(F)(F)F)c2)cn1 [Compound 1j]	42.34% ± 3.81%		
O=C(NCCNc1nccc(-c2c(-c3ccc(F)cc3)nc3sccn23)n1)c1cc(N2CCOCC2)cc(C(F)(F)F)c1 [Compound 1k]	16.58% ± 6.08%		amoebicidal effects / antiamoebic activity against A. castellanii [1]: did not show promising antiamoebic activity
CC(C)(C)OC(=O)N1CCN(CCNc2nccc(-c3c(-c4ccc(F)cc4)nc4sccn34)n2)S1(=O)=O [Compound 1l]	47.41% ± 1.67%	59.9	inhibition of amoebae binding to human cells [2]: 42%
COc1cccc(-c2nc3sccn3c2-c2ccnc(NCCNC(=O)Nc3cc(C(F)(F)F)cc(C(F)(F)F)c3)n2)c1 [Compound 1n]	51.05% ± 2.36%	47.5	CC50 (human cell lines): 648 µM; EC90 (human cell lines): 16.4 µM
COc1cccc(-c2nc3sccn3c2-c2ccnc(NCCNC(=O)c3ccccc3)n2)c1 [Compound 1o]	11.78% ± 11.34%		amoebicidal effects / antiamoebic activity against A. castellanii [1]: did not show promising antiamoebic activity
COc1cccc(-c2nc3sccn3c2-c2ccnc(NCCNC(=O)c3ccccc3O)n2)c1 [Compound 1p]	36.42% ± 5.43%		
COc1cccc(-c2nc3sccn3c2-c2ccnc(NCCNC(=O)c3cccc(C(F)(F)F)c3)n2)c1 [Compound 1q]	52.41% ± 5.31%	47.7	CC50 (human cell lines): 584 µM; EC90 (human cell lines): 30.6 µM; cytotoxicity against HeLa cells (HeLa cells): 38%
COc1cccc(-c2nc3sccn3c2-c2ccnc(NCCNC(=O)c3cc(C(F)(F)F)cc(C(F)(F)F)c3)n2)c1 [Compound 1r]	44.91% ± 8.42%	64.7	CC50 (human cell lines): 183 µM; EC90 (human cell lines): 33.9 µM
COc1cccc(-c2nc3sccn3c2-c2ccnc(NCCNC(=O)c3ccc(N4CCOCC4)c(C(F)(F)F)c3)n2)c1 [Compound 1s]	39.10% ± 2.31%		
COc1cccc(-c2nc3sccn3c2-c2ccnc(NCCNC(=O)c3cc(N4CCOCC4)cc(C(F)(F)F)c3)n2)c1 [Compound 1t]	17.46% ± 3.75%		amoebicidal effects / antiamoebic activity against A. castellanii [1]: did not show promising antiamoebic activity
O=C(NCCNc1nccc(-c2c(-c3cccc(O)c3)nc3sccn23)n1)Nc1ccccc1 [Compound 1u]	12.66% ± 5.04%		amoebicidal effects / antiamoebic activity against A. castellanii [1]: did not show promising antiamoebic activity
O=C(NCCNc1nccc(-c2c(-c3cccc(O)c3)nc3sccn23)n1)Nc1cccc(C(F)(F)F)c1 [Compound 1v]	44.86% ± 2.98%	60	CC50 (human cell lines): 222 µM; EC90 (human cell lines): 5.36 µM
O=C(NCCNc1nccc(-c2c(-c3cccc(O)c3)nc3sccn23)n1)Nc1cc(C(F)(F)F)cc(C(F)(F)F)c1 [Compound 1w]	50.25% ± 4.67%	46.3	CC50 (human cell lines): 304 µM; EC90 (human cell lines): 36.1 µM
O=C(NCCNc1nccc(-c2c(-c3cccc(O)c3)nc3sccn23)n1)c1ccccc1 [Compound 1x]	48.02% ± 3.69%	54	EC90 (human cell lines): 102 µM
O=C(NCCNc1nccc(-c2c(-c3cccc(O)c3)nc3sccn23)n1)c1ccccc1O [Compound 1y]	12.50% ± 4.68%		amoebicidal effects / antiamoebic activity against A. castellanii [1]: did not show promising antiamoebic activity
O=C(NCCNc1nccc(-c2c(-c3cccc(O)c3)nc3sccn23)n1)c1cccc(C(F)(F)F)c1 [Compound 1z]	52.53% ± 1.67%	44.8	CC50 (human cell lines): 412 µM; EC90 (human cell lines): 80.9 µM; encystation blocked (trophozoites prevented from converting into cysts) [3]: 60%; inhibition of amoebae binding to human cells [2]: 42%
O=C(NCCNc1nccc(-c2c(-c3cccc(O)c3)nc3sccn23)n1)c1cc(C(F)(F)F)cc(C(F)(F)F)c1 [Compound 1za]	15.71% ± 6.61%		amoebicidal effects / antiamoebic activity against A. castellanii [1]: did not show promising antiamoebic activity
O=C(NCCNc1nccc(-c2c(-c3cccc(O)c3)nc3sccn23)n1)c1cc(N2CCOCC2)cc(C(F)(F)F)c1 [Compound 1zc]	14.79% ± 3.19%		amoebicidal effects / antiamoebic activity against A. castellanii [1]: did not show promising antiamoebic activity
